According to BindingDB's records for doi:10.7270/Q29C6VXX (Burnham Center For Chemical Genomics, 2011):

biological target: T1, Apoptotic protease-activating factor 1 (Homo sapiens, UniProt O14727); assay: activation of Apaf-1 mediated apoptosis – fluorescent, uHTS hits, dose response (AID 588554)
T1 sequence (O14727 whole entry): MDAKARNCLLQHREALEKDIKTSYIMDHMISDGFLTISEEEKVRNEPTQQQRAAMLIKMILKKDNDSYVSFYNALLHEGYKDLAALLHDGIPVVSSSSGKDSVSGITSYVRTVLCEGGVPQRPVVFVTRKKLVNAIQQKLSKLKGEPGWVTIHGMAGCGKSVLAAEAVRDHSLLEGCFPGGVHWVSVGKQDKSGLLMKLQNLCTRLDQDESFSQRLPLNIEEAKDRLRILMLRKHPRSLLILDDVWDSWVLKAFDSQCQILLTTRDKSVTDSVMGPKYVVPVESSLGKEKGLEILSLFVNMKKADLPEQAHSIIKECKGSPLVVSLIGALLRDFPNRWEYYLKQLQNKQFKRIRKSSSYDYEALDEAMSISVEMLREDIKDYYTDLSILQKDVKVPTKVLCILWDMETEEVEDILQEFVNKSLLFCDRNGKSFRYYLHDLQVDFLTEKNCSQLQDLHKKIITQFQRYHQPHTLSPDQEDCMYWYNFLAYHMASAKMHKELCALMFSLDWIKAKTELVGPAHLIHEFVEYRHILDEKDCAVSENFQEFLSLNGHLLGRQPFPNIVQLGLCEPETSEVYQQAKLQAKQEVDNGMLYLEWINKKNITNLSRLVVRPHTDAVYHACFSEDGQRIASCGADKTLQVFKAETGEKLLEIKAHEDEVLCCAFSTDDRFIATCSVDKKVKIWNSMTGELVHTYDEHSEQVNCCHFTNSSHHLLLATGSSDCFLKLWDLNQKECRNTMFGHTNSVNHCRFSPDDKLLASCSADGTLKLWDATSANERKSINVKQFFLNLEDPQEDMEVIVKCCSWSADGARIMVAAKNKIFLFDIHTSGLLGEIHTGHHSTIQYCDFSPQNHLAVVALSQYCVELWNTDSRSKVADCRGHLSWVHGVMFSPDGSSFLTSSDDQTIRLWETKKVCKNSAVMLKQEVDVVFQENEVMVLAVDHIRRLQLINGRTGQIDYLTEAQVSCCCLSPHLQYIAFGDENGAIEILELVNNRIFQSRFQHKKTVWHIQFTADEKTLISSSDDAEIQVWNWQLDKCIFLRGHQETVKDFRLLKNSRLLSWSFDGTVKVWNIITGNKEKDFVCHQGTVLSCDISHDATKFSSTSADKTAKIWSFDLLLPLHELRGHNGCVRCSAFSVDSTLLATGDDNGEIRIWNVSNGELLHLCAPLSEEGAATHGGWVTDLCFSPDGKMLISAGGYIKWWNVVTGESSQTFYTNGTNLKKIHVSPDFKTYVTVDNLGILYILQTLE

SMILES | EC50 [µM]
O=C(NN=CC1C=C(Cl)C=C([N+](=O)[O-])C1=O)NC12CC3CC(CC(C3)C1)C2 (stereo not drawn) [1-(1-adamantyl)-3-[[(E)-(3-chloro-5-nitro-6-oxo-1-cyclohexa-2,4-dienylidene)methyl]amino]urea] | 6.87
CCOc1ccc(C(=O)CC=Nc2ccc(S(=O)(=O)NC(=N)N)cc2)cc1 [2-[4-[[(E)-3-(4-ethoxyphenyl)-3-oxidanylidene-prop-1-enyl]amino]phenyl]sulfonylguanidine] | 6.28
CSc1ccc(CN=Nc2ccc(S(=O)(=O)Nc3ccccc3C(=O)O)cc2[N+](=O)[O-])cc1 [MLS002245633] | 8.23
